Assay results from publication PMC7897990, “TriTOX: A novel Trichomonas vaginalis assay platform for high-throughput screening of compound libraries” (International Journal for Parasitology: Drugs and Drug …, 2021).
Read-outs that look alike come from different tables or passages of the source.

Assays:
[1] = system: Trichomonas vaginalis G3 trophozoites; conditions: for T.vaginalis_Absorbance_Rep1: replicate 1, raw absorbance; for T.vaginalis_Absorbance_Rep2: replicate 2, raw absorbance
[2] = system: nontumorigenic neonatal foreskin fibroblast (NFF) cell line
[3] = HTS single concentration, parasite screen 1 µg/mL, replicate 1
[4] = HTS single concentration, parasite screen 1 µg/mL, replicate 2
[5] = NFF_NS1 screen 5 µg/mL, single concentration
[6] = parasite screen at 1 µg/mL, replicate 1
[7] = parasite screen at 1 µg/mL, replicate 2
[8] = NFF_NS1 screen at 5 µg/mL, NFF cells
[9] = HTS, parasite screen at 1 µg/mL, replicate 1
[10] = HTS, parasite screen at 1 µg/mL
[11] = HTS, parasite screen at 1 µg/mL, replicate 2
[12] = HTS replicate 1, parasite screen 1 µg/mL
[13] = HTS replicate 2, parasite screen 1 µg/mL
[14] = NFF fibroblasts, single concentration 5 µg/mL
[15] = replicate 1, parasite screen at 1 µg/mL
[16] = replicate 2, parasite screen at 1 µg/mL

Structure (SMILES): CN1C(=O)c2ccccc2-n2c(nc3ccccc3c2=O)C1=Cc1ccccc1 [BIA-B1646]
- T.vaginalis_%inb_Rep1 [1, 3]: 16.10%
- T.vaginalis_%inb_Rep2 [1, 4]: 13.67%
- NFF_Activity [2, 5]: I (otherwise these were reported as inactive (I))

Structure (SMILES): CC[C@H]1C[C@@H]2CC[C@@H](O2)[C@@H](C)C(=O)O[C@H](CC)C[C@H]2CC[C@H](O2)[C@H](C)C(=O)O[C@@H](CC)C[C@@H]2CC[C@@H](O2)[C@@H](C)C(=O)O[C@H](CC)C[C@H]2CC[C@H](O2)[C@H](C)C(=O)O1 [BIA-T1287]
- T.vaginalis_%inb_Rep1 [1, 6]: 8.97%
- T.vaginalis_%inb_Rep2 [1, 7]: 15.05%
- NFF_Activity [2, 8]: I (otherwise these were reported as inactive (I))

Structure (SMILES): CC(=O)O[C@@H]1C[C@]2(C)[C@@]3(CO)[C@H](O)C(=O)C(C)=C[C@H]3O[C@H]1[C@@]21CO1 [BIA-A1925]
- T.vaginalis_%inb_Rep1 [1, 3]: 9.96%
- T.vaginalis_%inb_Rep2 [1, 4]: 14.14%
- NFF_Activity [2, 5]: I (otherwise these were reported as inactive (I))

Structure (SMILES): CCCCCCCCCCCCCCCc1cc(O)cc(O)c1 [BIA-A1689]
- T.vaginalis_%inb_Rep1 [1, 3]: 16.26%
- T.vaginalis_%inb_Rep2 [1, 4]: 11.86%
- NFF_Activity [2, 5]: I (otherwise these were reported as inactive (I))

Structure (SMILES): CC(=O)OC[C@]12C[C@H](O)C(C)=C[C@H]1O[C@@H]1[C@H](O)[C@@H](OC(C)=O)[C@@]2(C)[C@]12CO2 [Neosolaniol]
- T.vaginalis_%inb_Rep1 [1]: 8.23%
- T.vaginalis_%inb_Rep2 [1]: 6.22%
- NFF_Activity [2]: I (key: active (A) compounds having >25% inhibitory activity; otherwise these were reported as inactive (I))

Structure (SMILES): CC1=CC(O/C=C2\CCOC2=O)OC1=O (centres unmarked) [GR5]
- T.vaginalis_%inb_Rep1 [1, 9]: 9.60%
- T.vaginalis_Absorbance_Rep1 [1, 10]: 0.948
- T.vaginalis_%inb_Rep2 [1, 11]: 13.10%
- T.vaginalis_Absorbance_Rep2 [1, 10]: 0.852
- NFF_Activity ([2]; NFF_NS1 screen at 5 µg/mL): I (otherwise these were reported as inactive (I))

Structure (SMILES): C[C@H]1CCN2C[C@]34C[C@@]5(C(=O)Nc6c5ccc5c6OC=CC(C)(C)O5)C(C)(C)[C@@H]3C[C@]12C(=O)N4C [Paraherquamide E]
- T.vaginalis_%inb_Rep1 [1, 12]: 16.63%
- T.vaginalis_%inb_Rep2 [1, 13]: 15.01%
- NFF_Activity [2, 14]: I (otherwise these were reported as inactive (I))

Structure (SMILES): C=CC1(C)CC(OC(=O)CSC2CC3CCC(C2)N3C)C2(C)C(C)CCC3(CCC(=O)C32)C(C)C1O (centres unmarked) [BIA-R1491]
- T.vaginalis_%inb_Rep1 [1, 6]: 10.45%
- T.vaginalis_%inb_Rep2 [1, 7]: 11.55%
- NFF_Activity [2, 8]: I (otherwise these were reported as inactive (I))

Structure (SMILES): CCC1OC(=O)C(C)C(=O)C(C)C(OC2OC(C)CC(N(C)C)C2O)C(C)(OC)CC(C)C(=O)C(C)C2N(CCCCn3cnc(-c4cccnc4)c3)C(=O)OC12C (centres unmarked) [BIA-T1316]
- T.vaginalis_%inb_Rep1 [1, 6]: 0.94%
- T.vaginalis_%inb_Rep2 [1, 7]: 5.97%
- NFF_Activity [2, 8]: I (otherwise these were reported as inactive (I))

Structure (SMILES): C[C@@H]1Cc2ccc(C(=O)N[C@@H](Cc3ccccc3)C(=O)O)c(O)c2C(=O)O1 [Ochratoxin B]
- T.vaginalis_%inb_Rep1 [1, 12]: 13.18%
- T.vaginalis_%inb_Rep2 [1, 13]: 9.36%
- NFF_Activity [2, 14]: I (otherwise these were reported as inactive (I))

Structure (SMILES): CO[C@@H]1[C@@H](O)[C@@H](O)[C@@H](Oc2ccc3c(O)c(NC(=O)c4ccc(O)c(CC=C(C)C)c4)c(=O)oc3c2C)OC1(C)C [Descarbamylnovobiocin]
- T.vaginalis_%inb_Rep1 [1, 9]: 9.75%
- T.vaginalis_Absorbance_Rep1 [1, 10]: 0.89
- T.vaginalis_%inb_Rep2 [1, 11]: 9.69%
- T.vaginalis_Absorbance_Rep2 [1, 10]: 0.754
- NFF_Activity ([2]; NFF_NS1 screen at 5 µg/mL): I (otherwise these were reported as inactive (I))

Structure (SMILES): CCCCCCCCCCCCCCCC(=O)N[C@H]1CCOC1=O [BIA-H1500]
- T.vaginalis_%inb_Rep1 [1, 15]: 13.84%
- T.vaginalis_%inb_Rep2 [1, 16]: 11.55%
- NFF_Activity ([2]; NFF cells, screen at 5 µg/mL): I (otherwise these were reported as inactive (I))

Structure (SMILES): C[N+]1(C)CCC2(c3cccc4c3NC3C4(C45CC[N+](C)(C)C4Nc4ccccc45)CC[N+]3(C)C)c3ccccc3NC21.[I-].[I-].[I-] (centres unmarked) [BIA-H1942]
- T.vaginalis_%inb_Rep1 [1, 15]: 9.49%
- T.vaginalis_%inb_Rep2 [1, 16]: 13.53%
- NFF_Activity ([2]; NFF cells, screen at 5 µg/mL): I (otherwise these were reported as inactive (I))

Structure (SMILES): O=c1cc2ccocc-2o1 [BIA-K1792]
- T.vaginalis_%inb_Rep1 [1, 15]: 12.93%
- T.vaginalis_%inb_Rep2 [1, 16]: 13.15%
- NFF_Activity ([2]; NFF cells, screen at 5 µg/mL): I (otherwise these were reported as inactive (I))

Structure (SMILES): Cc1cc(O)c(C=O)c2c1C(=O)Oc1c(CO)c(O)c3c(c1O2)C(O)OC3=O (centres unmarked) [BIA-S1741]
- T.vaginalis_%inb_Rep1 [1, 6]: 17.25%
- T.vaginalis_%inb_Rep2 [1, 7]: 7.43%
- NFF_Activity [2, 8]: I (otherwise these were reported as inactive (I))

Structure (SMILES): CC1OC(OC2C(CO)OC(OC3C(CO)OC(O)C(O)C3O)C(O)C2O)C(O)C(O)C1NC1C=C(CO)C(O)C(O)C1O (centres unmarked) [BIA-A1231]
- T.vaginalis_%inb_Rep1 [1, 3]: 14.16%
- T.vaginalis_%inb_Rep2 [1, 4]: 6.22%
- NFF_Activity [2, 5]: I (otherwise these were reported as inactive (I))

Structure (SMILES): CC[C@H](C)[C@H]1O[C@]2(C=C[C@@H]1C)C[C@@H]1C[C@@H](C/C=C(\C)[C@@H](O[C@H]3C[C@H](OC)[C@@H](O)[C@H](C)O3)[C@@H](C)/C=C/C=C3\CO[C@@H]4[C@H](O)C(C)=C[C@@H](C(=O)O1)[C@]34O)O2 [BIA-A1585]
- T.vaginalis_%inb_Rep1 [1, 3]: 14.27%
- T.vaginalis_%inb_Rep2 [1, 4]: 12.58%
- NFF_Activity [2, 5]: I (otherwise these were reported as inactive (I))

Structure (SMILES): CC1=CC2C(O)CCCC2C(C)(C(O)=C2C(=O)CNC2=O)C1CCC(C)C(O)/C(C)=C/CC(O)/C=C/C(C)C(O)/C=C/CC(O)/C=C/CC(O)CC1CCCN1C(=N)N (centres unmarked) [TPU-0037C]
- T.vaginalis_%inb_Rep1 [1, 9]: 9.28%
- T.vaginalis_%inb_Rep2 [1, 11]: 14.69%
- NFF_Activity ([2]; NFF fibroblast screen at 5 µg/mL, A = active, I = inactive): I (otherwise these were reported as inactive (I))

Structure (SMILES): COC(=O)c1cc(O)cc(OC)c1Oc1cc(C)cc(O)c1C(=O)O [BIA-A1008]
- T.vaginalis_%inb_Rep1 [1, 3]: 16.05%
- T.vaginalis_%inb_Rep2 [1, 4]: 13.59%
- NFF_Activity [2, 5]: I (otherwise these were reported as inactive (I))

Structure (SMILES): C[C@@H]1OC(=O)[C@H]2C[C@H]3CCCC[C@@H]3[C@@H](/C=C/[C@H]3CCC[C@H](C)N3C)[C@@H]12 [BIA-H1744]
- T.vaginalis_%inb_Rep1 [1, 15]: 12.98%
- T.vaginalis_%inb_Rep2 [1, 16]: 14.75%
- NFF_Activity ([2]; NFF cells, screen at 5 µg/mL): I (otherwise these were reported as inactive (I))

Structure (SMILES): CCCC[C@@H](C)[C@@H](OC(=O)C[C@@H](CC(=O)O)C(=O)O)[C@H](C[C@@H](C)C[C@H](O)CCCC[C@@H](O)C[C@H](O)[C@H](C)N)OC(=O)C[C@@H](CC(=O)O)C(=O)O [Fumonisin B1]
- T.vaginalis_%inb_Rep1 [1, 9]: 12.98%
- T.vaginalis_Absorbance_Rep1 [1, 10]: 0.958
- T.vaginalis_%inb_Rep2 [1, 11]: 14.05%
- T.vaginalis_Absorbance_Rep2 [1, 10]: 0.854
- NFF_Activity ([2]; NFF_NS1 screen at 5 µg/mL): I (otherwise these were reported as inactive (I))

Structure (SMILES): CCCCCCCC(=O)N[C@H]1CCOC1=O [Octanoyl-L-homoserine lactone]
- T.vaginalis_%inb_Rep1 [1, 12]: 16.84%
- T.vaginalis_%inb_Rep2 [1, 13]: 14.05%
- NFF_Activity [2, 14]: I (otherwise these were reported as inactive (I))

Structure (SMILES): COc1ccc2c3c([nH]c2c1)[C@H](C=C(C)C)N1C(=O)[C@@H]2CCCN2C(=O)[C@@H]1C3 [Fumitremorgin C]
- T.vaginalis_%inb_Rep1 [1, 9]: 12.68%
- T.vaginalis_Absorbance_Rep1 [1, 10]: 0.952
- T.vaginalis_%inb_Rep2 [1, 11]: 4.11%
- T.vaginalis_Absorbance_Rep2 [1, 10]: 0.699
- NFF_Activity ([2]; NFF_NS1 screen at 5 µg/mL): I (otherwise these were reported as inactive (I))

Structure (SMILES): CO[C@H]1C[C@H](O[C@H]2[C@H](C)O[C@@H](O[C@@H]3/C(C)=C/C[C@@H]4C[C@@H](C[C@]5(C=C[C@H](C)[C@@H](C(C)C)O5)O4)OC(=O)[C@@H]4C=C(C)[C@@H](O)[C@H]5OC/C(=C\C=C\[C@@H]3C)[C@]54O)C[C@@H]2OC)O[C@@H](C)[C@@H]1O [BIA-A1011]
- T.vaginalis_%inb_Rep1 [1, 3]: 14.65%
- T.vaginalis_%inb_Rep2 [1, 4]: 18.51%
- NFF_Activity [2, 5]: I (otherwise these were reported as inactive (I))

Structure (SMILES): O=c1cc(O)c1=O [Moniliformin]
- T.vaginalis_%inb_Rep1 [1, 12]: 8.57%
- T.vaginalis_%inb_Rep2 [1, 13]: 12.25%
- NFF_Activity [2, 14]: I (otherwise these were reported as inactive (I))

Structure (SMILES): Cc1cc(O)c2c(c1)C(=O)c1c(c(O)cc(O)c1-c1c(O)cc(O)c3c1C(=O)c1cc(C)cc(O)c1C3=O)C2=O [BIA-S1662]
- T.vaginalis_%inb_Rep1 [1, 6]: 9.89%
- T.vaginalis_%inb_Rep2 [1, 7]: 5.90%
- NFF_Activity [2, 8]: I (otherwise these were reported as inactive (I))

Structure (SMILES): Oc1cccc2nc3ccccc3nc12 [BIA-H1520]
- T.vaginalis_%inb_Rep1 [1, 15]: 9.69%
- T.vaginalis_%inb_Rep2 [1, 16]: 12.89%
- NFF_Activity ([2]; NFF cells, screen at 5 µg/mL): I (otherwise these were reported as inactive (I))

Structure (SMILES): COc1c(O)cc2cc(C)oc(=O)c2c1O [BIA-R1077]
- T.vaginalis_%inb_Rep1 [1, 6]: 14.76%
- T.vaginalis_%inb_Rep2 [1, 7]: 13.92%
- NFF_Activity [2, 8]: I (otherwise these were reported as inactive (I))

Structure (SMILES): C=CC(C)(C)C12CC3C(=O)N4C(CC5(C(C)(C)C=C)c6ccccc6NC45)C(=O)N3C1Nc1ccccc12 (centres unmarked) [BIA-A1631]
- T.vaginalis_%inb_Rep1 [1, 3]: 14.16%
- T.vaginalis_%inb_Rep2 [1, 4]: 13.96%
- NFF_Activity [2, 5]: I (otherwise these were reported as inactive (I))
